# The supplement of paper PMC13380429
# Key:
# Conditions in all cases: 72 h
# Calu-3 [1] = experiment: cell viability relative to DMSO; higher = less toxic
# U2OS [2] = experiment: as above
# Vero E6 [3] = experiment: as above
# HepG2 [4] = experiment: as above
# Caco-2 [5] = experiment: as above
# Calu-3 [6] = experiment: drug sensitivity score (DSS) for viability; higher = more toxic; extreme values may be limits of the assay
# U2OS [7] = experiment: as above
# Vero E6 [8] = experiment: as above
# HepG2 [9] = experiment: as above
# Caco-2 [10] = experiment: as above
# Calu-3 [11] = experiment: relative viability EC50 (midpoint between 100% and the lowest measured viability); higher = less toxic
# U2OS [12] = experiment: as above
# Vero E6 [13] = experiment: as above
# HepG2 [14] = experiment: as above
# Caco-2 [15] = experiment: as above
Structure (SMILES),cell viability (Calu-3 [1]; 1 nM) [%],cell viability (Calu-3 [1]; 10 nM) [%],cell viability (Calu-3 [1]; 100 nM) [%],cell viability (Calu-3 [1]; 1000 nM) [%],cell viability (Calu-3 [1]; 10000 nM) [%],cell viability (U2OS [2]; 1 nM) [%],cell viability (U2OS [2]; 10 nM) [%],cell viability (U2OS [2]; 100 nM) [%],cell viability (U2OS [2]; 1000 nM) [%],cell viability (U2OS [2]; 10000 nM) [%],cell viability (Vero E6 [3]; 1 nM) [%],cell viability (Vero E6 [3]; 10 nM) [%],cell viability (Vero E6 [3]; 100 nM) [%],cell viability (Vero E6 [3]; 1000 nM) [%],cell viability (Vero E6 [3]; 10000 nM) [%],cell viability (HepG2 [4]; 1 nM) [%],cell viability (HepG2 [4]; 10 nM) [%],cell viability (HepG2 [4]; 100 nM) [%],cell viability (HepG2 [4]; 1000 nM) [%],cell viability (HepG2 [4]; 10000 nM) [%],cell viability (Caco-2 [5]; 1 nM) [%],cell viability (Caco-2 [5]; 10 nM) [%],cell viability (Caco-2 [5]; 100 nM) [%],cell viability (Caco-2 [5]; 1000 nM) [%],cell viability (Caco-2 [5]; 10000 nM) [%],drug sensitivity score (Calu-3 [6]),drug sensitivity score (U2OS [7]),drug sensitivity score (Vero E6 [8]),drug sensitivity score (HepG2 [9]),drug sensitivity score (Caco-2 [10]),relative viability EC50 (Calu-3 [11]) [µM],relative viability EC50 (U2OS [12]) [µM],relative viability EC50 (Vero E6 [13]) [µM],relative viability EC50 (HepG2 [14]) [µM],relative viability EC50 (Caco-2 [15]) [µM]
Nc1nc(=O)n([C@H]2C[C@H](O)[C@@H](CO)O2)cc1Cl [cytochlor],91.6,98.1,102,95.7,86.3,97.7,100,94.4,100,92.5,100,98.5,98.8,98.3,98.7,114,105,113,93.5,76.5,90,97.6,77.4,101,84.6,0.4,0,0,1.7,0.5,> 10,> 10,> 10,> 10,> 10
O=C(O)Cc1ccc(CCNS(=O)(=O)c2ccc(Cl)cc2)cc1 [daltroban],101,95.3,102,116,105,102,95.3,99.2,96.1,99.9,109,98.4,109,107,89.5,95,90.9,99.8,104,95.7,104,104,94.2,94.1,94.7,0,0,0,0,0,> 10,> 10,> 10,> 10,> 10
COc1c(-c2ccc3cc(NS(C)(=O)=O)ccc3c2)cc(-n2ccc(=O)[nH]c2=O)cc1C(C)(C)C [dasabuvir],94,106,93.7,97.9,104,98.5,96.9,102,96.5,96.3,91.5,98.3,92.8,97,106,90.4,102,90.4,102,109,96.2,94.5,87.8,98.9,96.3,0,0,0,0,0,> 10,> 10,> 10,> 10,> 10
C[N+](C)(C)CCCCCCCCCC[N+](C)(C)C [decamethonium],88.3,114,95.6,108,89.3,98.3,99.8,94,97.3,95.5,101,98,102,95.7,99.7,102,99.2,96.2,93.2,104,98.1,93.1,99.1,99.9,97.4,0,0,0,0,0,> 10,> 10,> 10,> 10,> 10
CC(=O)N[C@H](Cc1ccc2ccccc2c1)C(=O)N[C@H](Cc1ccc(Cl)cc1)C(=O)N[C@H](Cc1cccnc1)C(=O)N[C@@H](CO)C(=O)N[C@@H](Cc1ccc(NC(=O)[C@@H]2CC(=O)NC(=O)N2)cc1)C(=O)N[C@H](Cc1ccc(NC(N)=O)cc1)C(=O)N[C@@H](CC(C)C)C(=O)N[C@@H](CCCCNC(C)C)C(=O)N1CCC[C@H]1C(=O)N[C@H](C)C(N)=O [degarelix],103,104,91.7,91.9,96.6,97.1,97,98.7,99.9,101,95.6,93.8,92,89.8,101,103,80.7,112,91,110,90.3,92.8,99.9,90.4,99.6,0,0,0,0,0,> 10,> 10,> 10,> 10,> 10
